# Measured values from patent US20250381143A1, “A SOLID PHARMACEUTICAL COMPOSITION” (ADLAI NORTYE BIOPHARMA CO., LTD., priority 2021, published 2025).
# Assay: Biopharmaceutical Classification System class
# Type: physicochemical
# Text: The present disclosure relates to a quality controllable solid dosage form and a process for its preparation, wherein the solid dosage form comprises a compound of formula 1 4-{(1S)-1-[({3-(difluoromethyl)-1-methyl-5-[3-(trifluoromethyl)phenoxy]-4-1H-pyrazolyl} carbonyl)amino]ethyl}benzoic acid (compound AN0025) and optionally at least one pharmaceutically acceptable carrier. […] The inventor unexpectedly found in the experiment that AN0025 tablets prepared by different processes can show good uniformity in in vitro dissolution experiments, and AN0025 tablets prepared with different API particle sizes have similar in vitro dissolution behavior and in vivo exposure.
structure (smiles),measurement,setting,value
"C[C@H](NC(=O)c1c(C(F)F)nn(C)c1Oc1cccc(C(F)(F)F)c1)c1ccc(C(=O)O)cc1 [AN0025, 4-{(1S)-1-[({3-(difluoromethyl)-1-methyl-5-[3-(trifluoromethyl)phenoxy]-4-1H-pyrazolyl}carbonyl)amino]ethyl}benzoic acid]",Biopharmaceutical Classification System class,,class IV
same,solubility,as per BCS class,low solubility
